The text below walks through data of ChEMBL document CHEMBL4033736, “A new type of pharmacological chaperone for GM1-gangliosidosis related human lysosomal β-galactosidase: N-Substituted 5-amino-1-hydroxymethyl-cyclopentanetriols” (Bioorg Med Chem Lett, 2017).

SMILES strings stand for the structures. Where a chain is given by its changes, count along the chain named. Calls of active or inactive are those of the source. The calls are words filed in the database; no cut-off is given here.

A short description of test [1]: Competitive inhibition of Saccharomyces cerevisiae alpha-glucosidase using 4-nitrophenyl alpha-[…] as substrate pre-incubated for up to 5 mins before substrate addition.
A short description of test [2]: Competitive inhibition of Fabrazyme (human recombinant alpha-galactosidase) using 4-nitrophenyl alpha-galactopyranoside as substrate pre-incubated for up to 5 mins before substrate addition.
The target of test [3] is T1, Lysosomal acid glucosylceramidase (Homo sapiens, UniProt P04062).
T1 sequence (P04062 whole entry): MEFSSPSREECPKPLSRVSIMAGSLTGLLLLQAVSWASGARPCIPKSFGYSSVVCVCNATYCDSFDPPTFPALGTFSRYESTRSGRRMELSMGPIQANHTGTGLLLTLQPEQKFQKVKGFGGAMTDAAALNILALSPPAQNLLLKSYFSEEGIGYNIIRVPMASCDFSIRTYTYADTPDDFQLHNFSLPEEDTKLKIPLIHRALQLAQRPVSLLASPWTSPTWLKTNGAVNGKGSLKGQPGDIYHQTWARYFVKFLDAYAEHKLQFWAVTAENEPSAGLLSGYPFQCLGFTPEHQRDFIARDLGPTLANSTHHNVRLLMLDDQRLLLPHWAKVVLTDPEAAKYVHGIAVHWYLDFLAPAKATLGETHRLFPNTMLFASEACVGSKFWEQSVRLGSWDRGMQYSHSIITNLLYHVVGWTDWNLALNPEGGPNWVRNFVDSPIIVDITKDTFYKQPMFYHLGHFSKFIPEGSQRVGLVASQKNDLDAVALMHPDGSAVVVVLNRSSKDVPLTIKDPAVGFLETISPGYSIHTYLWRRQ
As to the kind of experiment: Competitive inhibition of recombinant beta-glucocerebrosidase (unknown origin) using 4-nitrophenyl beta-D-[…] as substrate pre-incubated for up to 5 mins before substrate addition.

Test [4] is described as follows: Competitive inhibition of Agrobacterium sp. beta-glucosidase using 4-nitrophenyl beta-D-galactopyranoside as substrate pre-incubated for up to 5 mins before substrate addition.
Test [5] in a line: Competitive inhibition of Escherichia coli lacZ beta-galactosidase using 4-nitrophenyl beta-D-galactopyranoside as substrate pre-incubated for up to 5 mins before substrate addition.
Test [6] deals with T2, Beta-galactosidase (Homo sapiens), P16278 [R201C].
T2 sequence (whole entry): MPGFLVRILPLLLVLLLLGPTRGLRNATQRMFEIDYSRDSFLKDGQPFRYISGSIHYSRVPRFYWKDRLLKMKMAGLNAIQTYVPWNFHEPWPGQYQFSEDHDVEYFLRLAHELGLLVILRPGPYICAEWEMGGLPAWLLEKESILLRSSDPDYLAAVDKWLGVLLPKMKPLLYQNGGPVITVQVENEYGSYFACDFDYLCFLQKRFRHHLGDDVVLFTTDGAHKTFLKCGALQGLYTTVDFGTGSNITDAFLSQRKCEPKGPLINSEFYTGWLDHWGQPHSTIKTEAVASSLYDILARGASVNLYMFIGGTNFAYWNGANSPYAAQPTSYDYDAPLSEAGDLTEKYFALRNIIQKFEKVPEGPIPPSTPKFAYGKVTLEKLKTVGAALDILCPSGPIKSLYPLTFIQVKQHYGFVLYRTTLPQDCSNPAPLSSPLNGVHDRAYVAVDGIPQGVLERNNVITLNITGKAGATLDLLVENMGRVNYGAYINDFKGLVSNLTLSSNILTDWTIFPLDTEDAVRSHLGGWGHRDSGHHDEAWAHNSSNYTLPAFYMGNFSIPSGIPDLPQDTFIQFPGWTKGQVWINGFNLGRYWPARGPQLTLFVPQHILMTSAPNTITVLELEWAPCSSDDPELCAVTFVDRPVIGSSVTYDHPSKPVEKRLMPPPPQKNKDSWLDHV
As to the kind of experiment: Chaperone activity at beta-galactosidase R201C mutant isolated from human patient fibroblasts assessed as increase in enzyme activity at 0.1 uM using 4-nitrophenyl beta-D-galactopyranoside as substrate relative to untreated control.

For test [7], the target named is T3, Beta-galactosidase (Homo sapiens, UniProt P16278).
T3 sequence (P16278 whole entry): T2 sequence (whole entry) with C201R
As to the kind of experiment: Competitive inhibition of human fibroblast lysosomal beta-galactosidase using 4-methylumbelliferyl-beta-D-galactopyranoside as substrate pre-incubated for up to 5 mins before substrate addition and measured after 30 mins.

Test [8] concerns the target T4, Beta-galactosidase (Bos taurus, UniProt Q58D55).
T4 sequence (Q58D55 whole entry): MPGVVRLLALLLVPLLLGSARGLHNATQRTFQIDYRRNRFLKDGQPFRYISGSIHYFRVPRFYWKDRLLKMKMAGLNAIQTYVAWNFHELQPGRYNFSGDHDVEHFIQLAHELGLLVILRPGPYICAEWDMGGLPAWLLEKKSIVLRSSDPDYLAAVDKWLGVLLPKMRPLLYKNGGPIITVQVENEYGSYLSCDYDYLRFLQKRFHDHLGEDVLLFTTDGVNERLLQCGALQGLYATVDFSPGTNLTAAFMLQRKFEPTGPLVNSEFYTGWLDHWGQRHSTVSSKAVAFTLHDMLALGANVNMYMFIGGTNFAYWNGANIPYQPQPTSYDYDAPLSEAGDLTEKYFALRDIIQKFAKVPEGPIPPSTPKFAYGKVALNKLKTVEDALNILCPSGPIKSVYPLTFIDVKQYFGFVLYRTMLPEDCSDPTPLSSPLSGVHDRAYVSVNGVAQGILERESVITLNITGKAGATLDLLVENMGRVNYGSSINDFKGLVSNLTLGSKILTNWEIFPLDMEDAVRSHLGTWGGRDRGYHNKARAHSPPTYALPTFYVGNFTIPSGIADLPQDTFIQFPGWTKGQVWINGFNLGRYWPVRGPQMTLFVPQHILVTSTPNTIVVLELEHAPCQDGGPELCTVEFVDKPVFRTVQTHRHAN
Description: Competitive inhibition of Bovine liver beta-galactosidase using 4-nitrophenyl beta-D-galactopyranoside as substrate pre-incubated for up to 5 mins before substrate addition.

Test [9] has as its system T2, Beta-galactosidase (Homo sapiens), P16278 [R201C]. Description: Chaperone activity at beta-galactosidase R201C mutant isolated from human patient fibroblasts assessed as increase in enzyme activity at 1 uM using 4-nitrophenyl beta-D-galactopyranoside as substrate relative to untreated control.
The test system is the same in test [10]. Description: Chaperone activity at beta-galactosidase R201C mutant isolated from human patient fibroblasts assessed as increase in enzyme activity at 10 uM using 4-nitrophenyl beta-D-galactopyranoside as substrate relative to untreated control.
For test [11] the test system is unchanged. Description: Inhibition of beta-galactosidase R201C mutant isolated from human patient fibroblasts at 1 uM using 4-nitrophenyl beta-D-galactopyranoside as substrat.
Test [12] has the same test system. Description: Chaperone activity at beta-galactosidase R201C mutant isolated from human patient fibroblasts assessed as increase in enzyme activity at 0.2 uM using 4-nitrophenyl beta-D-galactopyranoside as substrate relative to untreated control.
For test [13] the test system is unchanged. Description: Chaperone activity at beta-galactosidase R201C mutant isolated from human patient fibroblasts assessed as increase increase in thermal stability at 0.2 uM at 48 degC by thermal stability assay.
Test [14] has the same test system. As to the kind of experiment: Chaperone activity at beta-galactosidase R201C mutant isolated from human patient fibroblasts assessed as increase in enzyme activity at 0.05 uM using 4-nitrophenyl beta-D-galactopyranoside as substrate relative to untreated control.

For the compound `CN(C)c1cccc2c(S(=O)(=O)NCCCCCCN(C)[C@H]3[C@H](O)[C@@H](O)[C@@H](O)[C@H]3CO)cccc12`, the inhibitory constant (Ki) is greater than 2000 µM in test [1]; greater than 2000 µM in test [2]; 0.001 µM in test [3]; 0.0028 µM in test [4]; 0.016 µM in test [5].
For the compound `CN(C)c1cccc2c(S(=O)(=O)NCCCCCCN[C@H]3[C@H](O)[C@@H](O)[C@@H](O)[C@H]3CO)cccc12`, the inhibition constant (Ki) is greater than 2000 µM in test [1]; 238 µM in test [2]; 0.29 µM in [7]; 0.0053 µM in [8]; 0.019 µM in test [3]; 0.0012 µM in [4]. Further, in test [5], the affinity corresponds to a Ki of 0.01 µM. The fold change (FC) in [6] is 4; in [9], 6; in [10], 7.4.
`NCCCCCCN[C@H]1[C@H](O)[C@@H](O)[C@@H](O)[C@H]1CO`: the Ki in test [1] is greater than 2000 µM; in test [2] it was greater than 2000 µM; in [7] it was 9.2 µM; in test [8] it was 31 µM; in test [3] it was 54.2 µM; in test [4], 0.096 µM. This compound also registered an inhibition constant Ki in test [5] of 16 µM. In [11], the inhibition result is “Active”. Further, the fold change (FC) in test [12] came out at 5; in test [14] it was 4. The result in test [13] was Active. Also, the result in [9] was inactive.
Regarding `CCCCCCCCN[C@@H]1C=C(CO)[C@H](O)[C@H](O)[C@H]1O`, the Ki in test [1] is greater than 2000 µM; in test [2], greater than 2000 µM; in test [7], 0.51 µM; in test [3], 83 µM; in test [4] it was 7.7 µM; in [5] it was 2.8 µM.
With `N#CCCCN[C@H]1[C@H](O)[C@@H](O)[C@@H](O)[C@H]1CO`, the Ki in test [1] was greater than 2000 µM; in test [2], greater than 2000 µM; in test [8] it was 0.13 µM; in test [3], 10.3 µM; in test [4] it was 0.0024 µM; in test [5], 0.068 µM.
For the compound `OC[C@@H]1[C@H](O)[C@H](O)[C@@H](O)[C@@H]1N1CCCC1`, the Ki was greater than 2000 µM in [1]; greater than 2000 µM in test [2]; 123 µM in [3]; 1.8 µM in test [4]; 33 µM in test [5].
For the compound `N#CCCCCCN[C@H]1[C@H](O)[C@@H](O)[C@@H](O)[C@H]1CO`, the inhibitory constant (Ki) in test [1] was greater than 2000 µM; in test [2], greater than 2000 µM; in test [8], 0.11 µM; in test [3], 10.7 µM; in test [4] it was 0.006 µM; in test [5], 0.13 µM.

Broadly, the Ki is the equilibrium dissociation constant of an inhibitor or competing ligand from its target.
